The values below come from patent US6583180B2, “Glucocorticoid receptor modulators” (Abbott Laboratories, priority 2001, dated 2003).

As usually defined, the inhibition is the change of the read-out against control, counted positive when it falls. The term IC50 denotes the concentration needed to halve the response being measured.

For the first assay, the target named is T1, Human glucocorticoid receptors (Homo sapiens, UniProt P04150).
T1 construct: made in house; host or cells: Sf9 insect cells, recombinant baculovirus (BAC-TO-BAC)
T1 sequence (P04150 1-777): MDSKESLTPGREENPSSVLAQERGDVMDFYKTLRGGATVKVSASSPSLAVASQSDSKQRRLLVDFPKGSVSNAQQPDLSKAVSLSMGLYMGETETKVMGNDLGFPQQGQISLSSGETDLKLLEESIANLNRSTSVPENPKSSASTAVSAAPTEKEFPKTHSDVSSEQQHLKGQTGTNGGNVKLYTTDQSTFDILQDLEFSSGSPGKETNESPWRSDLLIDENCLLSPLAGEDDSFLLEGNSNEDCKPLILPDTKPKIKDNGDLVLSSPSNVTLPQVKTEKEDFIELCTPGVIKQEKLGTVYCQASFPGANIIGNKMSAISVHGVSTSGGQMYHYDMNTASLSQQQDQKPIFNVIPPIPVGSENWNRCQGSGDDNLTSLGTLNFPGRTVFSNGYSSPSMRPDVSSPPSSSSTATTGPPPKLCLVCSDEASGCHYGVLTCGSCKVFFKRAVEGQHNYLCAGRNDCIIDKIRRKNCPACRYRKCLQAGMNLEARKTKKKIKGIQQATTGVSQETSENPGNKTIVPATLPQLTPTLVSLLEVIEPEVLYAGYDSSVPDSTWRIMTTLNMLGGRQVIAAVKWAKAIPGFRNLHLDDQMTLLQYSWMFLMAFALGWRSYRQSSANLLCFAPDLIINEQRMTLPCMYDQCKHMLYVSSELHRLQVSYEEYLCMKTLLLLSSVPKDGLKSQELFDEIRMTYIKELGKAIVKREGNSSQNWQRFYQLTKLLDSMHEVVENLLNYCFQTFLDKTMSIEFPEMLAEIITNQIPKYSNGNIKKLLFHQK
The experiment in a line: Radioligand filter binding assay, displacement of 3[H]-dexamethasone from hGR. The note with it: read-out: GR Binding (% Inhibition at 1.7 μM). The essentials: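 Recombinant hGR extract from baculovirus-infected Sf9 cells (final ~1 nM receptor) incubated with ³H-dexamethasone and test compound dilutions in duplicate, EDTA/phosphate pH 8 buffer with MTG, overnight (15-20 h) at +4° C. Bound label collected on PEI-treated GF/B filters and scintillation-counted; IC50 from four-parameter fit of corrected cpm.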
Turning to `Cc1c(NS(C)(=O)=O)cccc1N(Cc1ccc(Oc2ccc(Cl)c(OCC(=O)NCCC(=O)O)c2)cc1)Cc1ccc(F)cc1F` [Example 317, N-((2-chloro-5-(4-(((2,4-difluorobenzyl)(2-methyl-3-((methylsulfonyl)amino)phenyl)amino)methyl)phenoxy)phenoxy)acetyl)-beta-alanine], the inhibition at 1.7 µM turned out to be 96.5%.

Regarding `Cc1c(NS(C)(=O)=O)cccc1N(Cc1ccc(Oc2ccc(Cl)c(OCC(=O)NCCCC(=O)O)c2)cc1)Cc1ccc(F)cc1F` [Example 318, 4-(((2-chloro-5-(4-(((2,4-difluorobenzyl)(2-methyl-3-((methylsulfonyl)amino)phenyl)amino)methyl)phenoxy)phenoxy)acetyl)amino)butanoic acid], the inhibition at 1.7 µM amounted to 95.1%.

As for `Cc1c(NS(C)(=O)=O)cccc1N(Cc1ccccc1)Cc1ccc(Oc2ccc(Cl)c(OCCCC(=O)NCCCC(=O)O)c2)cc1` [Example 319, 4-((4-(5-(4-((benzyl(2-methyl-3-((methylsulfonyl)amino)phenyl)amino)methyl)phenoxy)-2-chlorophenoxy)butanoyl)amino)butanoic acid], the inhibition at 1.7 µM came to 96.4%.

Take `Cc1c(NS(C)(=O)=O)cccc1N(Cc1ccc(Oc2ccc(Cl)c(OCCCC(=O)NCCCC(=O)O)c2)cc1)Cc1ccc(F)cc1F` [Example 320, 4-((4-(2-chloro-5-(4-(((2,4-difluorobenzyl)(2-methyl-3-((methylsulfonyl)amino)phenyl)amino)methyl)phenoxy)phenoxy)butanoyl)amino)butanoic acid]: the inhibition at 1.7 µM worked out at 96.8%.

For `Cc1c(NS(C)(=O)=O)cccc1N(Cc1ccc(Oc2ccc(Cl)c(O[C@H](C)C(=O)O)c2)cc1)Cc1ccc(F)cc1F` [Example 321, (2R)-2-(2-chloro-5-(4-(((2,4-difluorobenzyl)(2-methyl-3-((methylsulfonyl)amino)phenyl)amino)methyl)phenoxy)phenoxy)propanoic acid], the inhibition at 1.7 µM was found to be 96.4%.

In another assay the target is T2, progesterone receptor (PR) (Homo sapiens, UniProt P06401).
T2 sequence (P06401 1-933): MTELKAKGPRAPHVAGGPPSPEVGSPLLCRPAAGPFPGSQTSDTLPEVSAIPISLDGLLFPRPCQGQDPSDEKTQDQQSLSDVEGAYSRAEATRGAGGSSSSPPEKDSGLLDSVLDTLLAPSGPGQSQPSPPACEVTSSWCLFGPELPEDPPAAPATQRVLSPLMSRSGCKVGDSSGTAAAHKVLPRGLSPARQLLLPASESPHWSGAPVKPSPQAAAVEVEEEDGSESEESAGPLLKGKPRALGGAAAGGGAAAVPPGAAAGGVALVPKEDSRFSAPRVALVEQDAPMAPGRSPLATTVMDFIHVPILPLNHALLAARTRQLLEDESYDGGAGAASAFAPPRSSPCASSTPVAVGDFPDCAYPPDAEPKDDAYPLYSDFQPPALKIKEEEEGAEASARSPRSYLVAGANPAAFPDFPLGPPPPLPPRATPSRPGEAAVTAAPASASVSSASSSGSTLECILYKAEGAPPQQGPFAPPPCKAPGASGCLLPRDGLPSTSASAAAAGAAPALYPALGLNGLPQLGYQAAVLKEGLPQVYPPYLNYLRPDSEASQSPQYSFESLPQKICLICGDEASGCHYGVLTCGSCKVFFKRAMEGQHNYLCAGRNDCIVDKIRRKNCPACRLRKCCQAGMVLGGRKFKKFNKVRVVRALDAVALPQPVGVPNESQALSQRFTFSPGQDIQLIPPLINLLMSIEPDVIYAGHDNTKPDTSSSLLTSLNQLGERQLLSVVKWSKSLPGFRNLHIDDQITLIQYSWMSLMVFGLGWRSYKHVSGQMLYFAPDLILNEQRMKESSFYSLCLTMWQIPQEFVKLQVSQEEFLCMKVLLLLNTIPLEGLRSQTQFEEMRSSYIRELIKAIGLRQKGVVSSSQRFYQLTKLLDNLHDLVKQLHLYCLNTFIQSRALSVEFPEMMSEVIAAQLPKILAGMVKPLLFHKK
As to the kind of experiment: Radioligand binding assay for progesterone receptor (similar protocol).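 Further: radioligand binding measured with cytosol preparations containing the human progesterone receptor.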
Conditions: not given
The molecule `Cc1c(NS(C)(=O)=O)cccc1N(Cc1ccccc1)Cc1ccc(F)cc1` [Example 9, N-{3-[benzyl(4-fluorobenzyl)amino]-2-methylphenyl}methanesulfonamide] returned a half-maximal inhibitory concentration (IC50) of 4050 nM.

For the molecule `Cc1c(NS(C)(=O)=O)cccc1N(Cc1ccccc1)Cc1ccc(F)cc1F` [Example 10, N-{3-[benzyl(2,4-difluorobenzyl)amino]-2-methylphenyl}methanesulfonamide], the IC50 was 2310 nM.

With `Cc1c(NS(C)(=O)=O)cccc1N(Cc1ccccc1)Cc1ccc(Br)cc1` [Example 13, N-{3-[benzyl(4-bromobenzyl)amino]-2-methylphenyl}methanesulfonamide], the IC50 amounted to 1860 nM.

`COc1ccc(CN(Cc2ccc(F)cc2F)c2cccc(NS(C)(=O)=O)c2C)cc1` [Example 22, N-{3-[(2,4-difluorobenzyl)(4-methoxybenzyl)amino]-2-methylphenyl}methanesulfonamide] displayed a half-maximal inhibitory concentration (IC50) of 1480 nM.

On to `Cc1c(NS(C)(=O)=O)cccc1N(Cc1ccc(F)cc1F)Cc1ccc(F)cc1F` [Example 24, N-{3-[bis(2,4-difluorobenzyl)amino]-2-methylphenyl}methanesulfonamide], for which the IC50 was determined as 2590 nM.

Regarding `Cc1c(NS(C)(=O)=O)cccc1N(Cc1ccccc1)Cc1ccc(Cl)cc1` [Example 29, N-{3-[benzyl(4-chlorobenzyl)amino]-2-methylphenyl}methanesulfonamide], the IC50 was greater than 10000 nM.

In turn, `Cc1c(NS(C)(=O)=O)cccc1N(Cc1ccccc1)Cc1ccc(Cl)cc1Cl` [Example 32, N-{3-[benzyl(2,4-dichlorobenzyl)amino]-2-methylphenyl}methanesulfonamide] showed an IC50 of 1730 nM.

Molecule `Cc1c(NS(C)(=O)=O)cccc1N(Cc1ccccc1)Cc1ccc(OCC=CBr)cc1` [Example 35, N-{3-[benzyl(4-{[3-bromo-2-propenyl]oxy}benzyl)amino]-2-methylphenyl}methanesulfonamide] yielded an IC50 greater than 10000 nM.

`Cc1c(NS(C)(=O)=O)cccc1N(Cc1ccc(Oc2ccc(CCC(=O)O)cc2)cc1)Cc1ccc(F)cc1F` [Example 50, N-{3-[(4-(4-(2-carboxyethyl)phenoxy)benzyl)(2,4-difluorobenzyl)amino]-2-methylphenyl}methanesulfonamide] yielded a concentration for half-maximal inhibition (IC50) of 190 nM.

For the molecule `Cc1c(NS(C)(=O)=O)cccc1N(Cc1ccccc1)Cc1ccc(Oc2cccc(OCC(=O)O)c2)cc1` [Example 62, (3-{4-[(benzyl{2-methyl-3-[(methylsulfonyl)amino]phenyl}amino)methyl]phenoxy}phenoxy)acetic acid], the half-maximal inhibitory concentration (IC50) came out at 246 nM.

`Cc1c(NS(C)(=O)=O)cccc1N(Cc1ccc(Oc2ccc(CCC(=O)O)cc2)cc1)Cc1ccc(Cl)cc1F` [Example 86, 3-(4-{4-[((4-chloro-2-fluorobenzyl){2-methyl-3-[(methylsulfonyl)amino]phenyl}amino)methyl]phenoxy}phenyl)propanoic acid] displayed an IC50 of 216 nM.

In the case of `Cc1c(NS(C)(=O)=O)cccc1N(Cc1ccccc1)Cc1ccc(Oc2ccc(C(=O)O)cc2)cc1` [Example 96, 4-{4-[(benzyl{2-methyl-3-[(methylsulfonyl)amino]phenyl}amino)methyl]phenoxy}benzoic acid], the half-inhibitory concentration (IC50) was greater than 1000 nM.

The molecule `COCOc1ccc(Oc2ccc(CN(Cc3ccccc3)c3cccc(NS(C)(=O)=O)c3C)cc2)cc1` [Example 97, N-[3-(benzyl{4-[4-(methoxymethoxy)phenoxy]benzyl}amino)-2-methylphenyl]methanesulfonamide] gave an IC50 of 772 nM.

As for `Cc1c(NS(C)(=O)=O)cccc1N(Cc1ccc(Br)cc1)Cc1ccc(Oc2ccccc2)cc1` [Example 103, N-{3-[(4-bromobenzyl)(4-phenoxybenzyl)amino]-2-methylphenyl}methanesulfonamide], the 50% inhibitory concentration (IC50) is 78.3 nM.

The molecule `Cc1c(NS(C)(=O)=O)cccc1N(Cc1ccccc1)Cc1ccc(Oc2ccc(CCCC(=O)NCC(=O)O)cc2)cc1` [Example 107, N-[4-(4-{4-[(benzyl{2-methyl-3-[(methylsulfonyl)amino]phenyl}amino)methyl]phenoxy}phenyl)butanoyl]glycine] displayed an IC50 of 743 nM.

For the molecule `Cc1c(NS(C)(=O)=O)cccc1N(Cc1ccccc1)Cc1ccc(Oc2cccc(O)c2)cc1` [Example 115, N-(3-{benzyl[4-(3-hydroxyphenoxy)benzyl]amino}-2-methylphenyl)methanesulfonamide], the IC50 was 165 nM.

The molecule `CSc1ccc(CN(Cc2ccc(Cl)cc2F)c2cccc(NS(C)(=O)=O)c2C)cc1` [Example 144, N-(3-{(4-chloro-2-fluorobenzyl)[4-(methylthio)benzyl]amino}-2-methylphenyl)methanesulfonamide] registered an IC50 of 1300 nM.

In turn, `Cc1c(NS(C)(=O)=O)cccc1N(Cc1ccccc1F)Cc1ccc(Cl)cc1F` [Example 145, N-{3-[(4-chloro-2-fluorobenzyl)(2-fluorobenzyl)amino]-2-methylphenyl}methanesulfonamide] had an IC50 of 357 nM.

The molecule `Cc1c(NS(C)(=O)=O)cccc1N(Cc1ccc(Oc2ccc(F)c(OCC(=O)O)c2)cc1)Cc1ccc(F)cc1F` [Example 305, (5-(4-(((2,4-difluorobenzyl)(2-methyl-3-((methylsulfonyl)amino)phenyl)amino)methyl)phenoxy)-2-fluorophenoxy)acetic acid] gave an IC50 of 8.9 nM.
